Measured values from the NIST ThermoML archive (doi:10.1021/je800395m).
“And” between values parts separate entries of the source, which are not always exact repeats. Identical values can stand only once. Numbers after ± are expanded uncertainties.

Details: for Normal melting temperature: DTA
[1] = 392 K, Crystal, Calculated from knudsen effusion weight loss

CC(C)[C@@H](C)/C=C/[C@@H](C)[C@H]1CC[C@H]2C3=CC=C4C[C@@H](O)CC[C@]4(C)[C@H]3CC[C@]12C [(22E)-ergosta-5,7,22-trien-3β-ol]
vapor or sublimation pressure (381.3 K, Crystal, Calculated from knudsen effusion weight loss): 3.1e-06 ± 2e-07 kPa
vapor or sublimation pressure (383.8 K, Crystal, Calculated from knudsen effusion weight loss): 4.4e-06 ± 3e-07 kPa
vapor or sublimation pressure (386.5 K, Crystal, Calculated from knudsen effusion weight loss): 5.6e-06 ± 4e-07 kPa
vapor or sublimation pressure (394.4 K, Crystal, Calculated from knudsen effusion weight loss): 1.42e-05 ± 8e-07 kPa
vapor or sublimation pressure (399.6 K, Crystal, Calculated from knudsen effusion weight loss): 2.6e-05 ± 1.4e-06 kPa
vapor or sublimation pressure (402.3 K, Crystal, Calculated from knudsen effusion weight loss): 3.54e-05 ± 1.9e-06 kPa
vapor or sublimation pressure (404.6 K, Crystal, Calculated from knudsen effusion weight loss): 4.47e-05 ± 2.4e-06 kPa
vapor or sublimation pressure (407.2 K, Crystal, Calculated from knudsen effusion weight loss): 5.91e-05 ± 3.3e-06 kPa
vapor or sublimation pressure (412.3 K, Crystal, Calculated from knudsen effusion weight loss): 0.0001027 ± 5.4e-06 kPa
Normal melting temperature (Crystal): 158 ± 1 °C

CC(C)CCC[C@@H](C)[C@H]1CC[C@H]2[C@@H]3CC=C4C[C@@H](O)CC[C@]4(C)[C@H]3CC[C@]12C [.DELTA.5-cholesten-3β-ol]
vapor or sublimation pressure (386.6 K, Crystal, Calculated from knudsen effusion weight loss): 1.18e-05 ± 7e-07 kPa
vapor or sublimation pressure [1]: 2.13e-05 ± 1.2e-06 kPa
vapor or sublimation pressure (397.3 K, Crystal, Calculated from knudsen effusion weight loss): 3.95e-05 ± 2.2e-06 kPa
vapor or sublimation pressure (403.1 K, Crystal, Calculated from knudsen effusion weight loss): 7.14e-05 ± 3.9e-06 kPa
vapor or sublimation pressure (408.2 K, Crystal, Calculated from knudsen effusion weight loss): 0.0001251 ± 6.8e-06 kPa
vapor or sublimation pressure (413.8 K, Crystal, Calculated from knudsen effusion weight loss): 0.0002146 ± 1.1e-05 kPa
Normal melting temperature (Crystal): 148 ± 1 °C

CC[C@H](CC[C@@H](C)[C@H]1CC[C@H]2[C@@H]3CC=C4C[C@@H](O)CC[C@]4(C)[C@H]3CC[C@]12C)C(C)C [β-sitosterol]
vapor or sublimation pressure (389.9 K, Crystal, Calculated from knudsen effusion weight loss): 9.4e-06 ± 6e-07 kPa
vapor or sublimation pressure (392.4 K, Crystal, Calculated from knudsen effusion weight loss): 1.27e-05 ± 7e-07 kPa
vapor or sublimation pressure (395.2 K, Crystal, Calculated from knudsen effusion weight loss): 1.72e-05 ± 9e-07 kPa
vapor or sublimation pressure (397.7 K, Crystal, Calculated from knudsen effusion weight loss): 2.23e-05 ± 1.2e-06 kPa
vapor or sublimation pressure (400.3 K, Crystal, Calculated from knudsen effusion weight loss): 2.99e-05 ± 1.7e-06 kPa
vapor or sublimation pressure (405.6 K, Crystal, Calculated from knudsen effusion weight loss): 5.2e-05 ± 3e-06 kPa
vapor or sublimation pressure (410.7 K, Crystal, Calculated from knudsen effusion weight loss): 9.02e-05 ± 4.8e-06 kPa
Normal melting temperature (Crystal): 138 ± 1 °C

c1ccc2cc3ccccc3cc2c1 [anthracene]
vapor or sublimation pressure (319.6 K, Crystal, Calculated from knudsen effusion weight loss): 1.3e-05 ± 8e-07 kPa and 1.29e-05 ± 8e-07 kPa
vapor or sublimation pressure (323.9 K, Crystal, Calculated from knudsen effusion weight loss): 2.14e-05 ± 1.2e-06 kPa
vapor or sublimation pressure (326.8 K, Crystal, Calculated from knudsen effusion weight loss): 3.04e-05 ± 1.7e-06 kPa
vapor or sublimation pressure (326.9 K, Crystal, Calculated from knudsen effusion weight loss): 3e-05 ± 1.7e-06 kPa
vapor or sublimation pressure (331.7 K, Crystal, Calculated from knudsen effusion weight loss): 5.29e-05 ± 2.7e-06 kPa
vapor or sublimation pressure (332.1 K, Crystal, Calculated from knudsen effusion weight loss): 5.32e-05 ± 2.7e-06 kPa
vapor or sublimation pressure (332.2 K, Crystal, Calculated from knudsen effusion weight loss): 5.41e-05 ± 2.9e-06 kPa
vapor or sublimation pressure (334 K, Crystal, Calculated from knudsen effusion weight loss): 6.51e-05 ± 3.6e-06 kPa
vapor or sublimation pressure (334.2 K, Crystal, Calculated from knudsen effusion weight loss): 6.59e-05 ± 3.7e-06 kPa
vapor or sublimation pressure (337 K, Crystal, Calculated from knudsen effusion weight loss): 9.16e-05 ± 4.9e-06 kPa
vapor or sublimation pressure (339.4 K, Crystal, Calculated from knudsen effusion weight loss): 0.0001131 ± 6.1e-06 kPa
vapor or sublimation pressure (342 K, Crystal, Calculated from knudsen effusion weight loss): 0.0001487 ± 8.5e-06 kPa
vapor or sublimation pressure (349.7 K, Crystal, Calculated from knudsen effusion weight loss): 0.0003165 ± 1.7e-05 kPa and 0.0003121 ± 1.7e-05 kPa
vapor or sublimation pressure (354.8 K, Crystal, Calculated from knudsen effusion weight loss): 0.0005077 ± 2.7e-05 kPa

CC[C@H](/C=C/[C@@H](C)[C@H]1CC[C@H]2[C@@H]3CC=C4C[C@@H](O)CC[C@]4(C)[C@H]3CC[C@]12C)C(C)C [(22E)-stigmasta-5,22-dien-3β-ol]
vapor or sublimation pressure (390.9 K, Crystal, Calculated from knudsen effusion weight loss): 3.9e-06 ± 2e-07 kPa
vapor or sublimation pressure [1]: 4.6e-06 ± 3e-07 kPa
vapor or sublimation pressure (393.5 K, Crystal, Calculated from knudsen effusion weight loss): 5.6e-06 ± 3e-07 kPa
vapor or sublimation pressure (396.1 K, Crystal, Calculated from knudsen effusion weight loss): 8.2e-06 ± 5e-07 kPa
vapor or sublimation pressure (397.2 K, Crystal, Calculated from knudsen effusion weight loss): 9.4e-06 ± 5e-07 kPa
vapor or sublimation pressure (398.7 K, Crystal, Calculated from knudsen effusion weight loss): 1.15e-05 ± 7e-07 kPa
vapor or sublimation pressure (401.2 K, Crystal, Calculated from knudsen effusion weight loss): 1.61e-05 ± 9e-07 kPa
vapor or sublimation pressure (403.9 K, Crystal, Calculated from knudsen effusion weight loss): 2.2e-05 ± 1e-06 kPa
vapor or sublimation pressure (406.3 K, Crystal, Calculated from knudsen effusion weight loss): 2.96e-05 ± 1.7e-06 kPa
vapor or sublimation pressure (408.9 K, Crystal, Calculated from knudsen effusion weight loss): 4.11e-05 ± 2.3e-06 kPa
vapor or sublimation pressure (411.5 K, Crystal, Calculated from knudsen effusion weight loss): 5.38e-05 ± 3e-06 kPa
vapor or sublimation pressure (414 K, Crystal, Calculated from knudsen effusion weight loss): 7.23e-05 ± 4e-06 kPa
vapor or sublimation pressure (416.6 K, Crystal, Calculated from knudsen effusion weight loss): 9.54e-05 ± 5.1e-06 kPa
Normal melting temperature (Crystal): 162 ± 1 °C

c1ccc2cc3cc4ccccc4cc3cc2c1 [2,3-benzanthracene]
vapor or sublimation pressure (399 K, Crystal 2): 1.46e-05 ± 1.5e-06 kPa
vapor or sublimation pressure (404.4 K, Crystal 2): 2.1e-05 ± 2.2e-06 kPa
vapor or sublimation pressure (405.6 K, Crystal 2): 2.55e-05 ± 2.6e-06 kPa
vapor or sublimation pressure (409.5 K, Crystal 2): 3.39e-05 ± 3.5e-06 kPa
vapor or sublimation pressure (410.6 K, Crystal 2): 4.22e-05 ± 4.3e-06 kPa
vapor or sublimation pressure (414.6 K, Crystal 2): 5.42e-05 ± 5.5e-06 kPa
vapor or sublimation pressure (415.8 K, Crystal 2): 6.67e-05 ± 6.8e-06 kPa
vapor or sublimation pressure (416.6 K, Crystal 2): 6.39e-05 ± 6.5e-06 kPa
vapor or sublimation pressure (418.6 K, Crystal 2): 7.84e-05 ± 8e-06 kPa
vapor or sublimation pressure (419.6 K, Crystal 2): 8.46e-05 ± 8.8e-06 kPa
vapor or sublimation pressure (420.8 K, Crystal 2): 0.0001032 ± 1e-05 kPa
vapor or sublimation pressure (424.7 K, Crystal 2): 0.0001278 ± 1.3e-05 kPa
vapor or sublimation pressure (430.1 K, Crystal 2): 0.0002146 ± 2.2e-05 kPa
